Data taken from patent publication US20230183218A1, “CONDENSED SUBSTITUTED HYDROPYRROLES AS ANTAGONISTS OF THE MUSCARINIC ACETYLCHOLINE RECEPTOR M4” (Vanderbilt University, priority 2020, published 2023).

Legend:
Rat M4 = biological target: T1, Rat M4 (Rattus norvegicus, UniProt P08485); assay: mAChR M4 cell-based functional assay (calcium flux, antagonist mode vs EC80 acetylcholine), rat M4/Gqi5/CHO-K1 cells; conditions: for remaining activity at 30 µM: CHO-K1, % ACh maximum at 30 μM, rat M4, read-out: Rat M4 Emin (%); for IC50: decrease of response elicited by EC80 acetylcholine, rat M4/Gqi5 CHO-K1 cells
T1 construct: expressed in transfected cells; host or cells: CHO-K1 (ATCC), stably co-expressing chimeric G protein Gqi5
T1 sequence (P08485 1-478): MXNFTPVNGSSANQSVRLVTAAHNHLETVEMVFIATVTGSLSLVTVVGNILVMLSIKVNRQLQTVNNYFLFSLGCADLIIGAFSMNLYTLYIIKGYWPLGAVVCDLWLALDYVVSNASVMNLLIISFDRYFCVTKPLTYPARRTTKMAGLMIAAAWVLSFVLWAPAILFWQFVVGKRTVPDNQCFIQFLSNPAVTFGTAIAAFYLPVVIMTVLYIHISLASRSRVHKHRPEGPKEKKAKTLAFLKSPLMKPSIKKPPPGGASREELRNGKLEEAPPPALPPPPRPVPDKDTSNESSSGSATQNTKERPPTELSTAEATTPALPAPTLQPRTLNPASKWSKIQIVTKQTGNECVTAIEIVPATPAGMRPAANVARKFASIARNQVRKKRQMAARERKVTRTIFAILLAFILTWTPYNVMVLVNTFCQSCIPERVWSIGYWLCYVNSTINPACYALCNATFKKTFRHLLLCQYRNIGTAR
Experimental: (§1) Human or rat M4 cDNA, along with the chimeric G protein Gqi5, were transfected into Chinese hamster ovary (CHO-K1) cells purchased from the American Type Culture Collection using Lipofectamine2000. M4/Gqi5/CHO cells were grown in Ham's F-12 medium containing 10% heat-inactivated fetal bovine serum (FBS), 20 mM HEPES, 500 μg/mL G418 sulfate, and 200 μg/mL Hygromycin B.
(§2) For high throughput measurement of agonist-evoked increases in intracellular calcium, CHO-K1 cells stably expressing muscarinic receptors were plated in growth medium lacking G418 and hygromycin at 15,000 cells/20 μL/well in Greiner 384-well black-walled, tissue culture (TC)-treated, clear-bottom plates (VWR). Cells were incubated overnight at 37° C. and 5% CO2. The next day, cells were washed using an ELX 405 (BioTek) with assay buffer; the final volume was then aspirated to 20 μL. Next, 20 μL of a 2.3 μM stock of Fluo-4/acetoxymethyl ester (Invitrogen, Carlsbad, Calif.), prepared as a 2.3 mM stock in DMSO and mixed in a 1:1 ratio with 10% (w/v) Pluronic F-127 and diluted in assay buffer, was added to the wells and the cell plates were incubated for 50 min at 37° C. and 5% CO2. Dye was removed by washing with the ELX 405 and the final volume was aspirated to 20 μL. Compound master plates were formatted in a 10 point concentration-response curve (CRC) format (1:3 dilutions) in 100% DMSO with a starting concentration of 10 or 1 mM using a BRAVO liquid handler (Agilent). Test compound CRCs were then transferred to daughter plates (240 nL) using the Echo acoustic plate reformatter (Labcyte, Sunnyvale, Calif.) and then diluted into assay buffer (40 μL) to a 2× stock using a Thermo Fisher Combi (Thermo Fisher Scientific, Waltham, Mass.).
(§3) Calcium flux was measured using the Functional Drug Screening System (FDSS) 6000 or 7000 (Hamamatsu Corporation, Tokyo, Japan) as an increase in the fluorescent static ratio. Compounds were applied to cells (20 μL, 2×) using the automated system of the FDSS at 2 seconds into the protocol and the data were collected at 1 Hz. At 143 s, 10 μL of an EC20 concentration of the muscarinic receptor agonist acetylcholine was added (5×), followed by the addition of 12 μL of an EC80 concentration of acetylcholine at the 268 s time point (5×). Agonist activity was analyzed as a concentration-dependent increase in calcium mobilization upon compound addition. Positive allosteric modulator activity was analyzed as a concentration-dependent increase in the EC20 acetylcholine response. Antagonist activity was analyzed as a concentration-dependent decrease in the EC80 acetylcholine response; for the purposes of the tables herein, an IC50 (inhibitory concentration 50) was calculated as a concentration-dependent decrease of the response elicited by an EC80 concentration of acetylcholine. Concentration-response curves were generated using a four-parameter logistical equation in XLFit curve fitting software (IDBS, Bridgewater, N.J.) for Excel (Microsoft, Redmond, Wash.) or Prism (GraphPad Software, Inc., San Diego, Calif.) or the Dotmatics software platform (Dotmatics, Bishop's Stortford, UK).
(§4) Compounds were synthesized as described above. Activity (IC50 and Emin) was determined in the mAChR M4 cell-based functional assay as described above and the data are shown in Table 2.

Human M4 = biological target: T2, Human M4 (Homo sapiens, UniProt P08173); assay: mAChR M4 cell-based functional assay (calcium flux, antagonist mode vs EC80 acetylcholine), human M4/Gqi5/CHO-K1 cells; conditions: for remaining activity at 30 µM: CHO-K1, % ACh maximum at 30 μM, human M4, read-out: Human M4 Emin (%); for IC50: decrease of response elicited by EC80 acetylcholine, human M4/Gqi5 CHO-K1 cells
T2 construct: expressed in transfected cells; host or cells: CHO-K1 (ATCC), stably co-expressing chimeric G protein Gqi5
T2 sequence (P08173 1-479): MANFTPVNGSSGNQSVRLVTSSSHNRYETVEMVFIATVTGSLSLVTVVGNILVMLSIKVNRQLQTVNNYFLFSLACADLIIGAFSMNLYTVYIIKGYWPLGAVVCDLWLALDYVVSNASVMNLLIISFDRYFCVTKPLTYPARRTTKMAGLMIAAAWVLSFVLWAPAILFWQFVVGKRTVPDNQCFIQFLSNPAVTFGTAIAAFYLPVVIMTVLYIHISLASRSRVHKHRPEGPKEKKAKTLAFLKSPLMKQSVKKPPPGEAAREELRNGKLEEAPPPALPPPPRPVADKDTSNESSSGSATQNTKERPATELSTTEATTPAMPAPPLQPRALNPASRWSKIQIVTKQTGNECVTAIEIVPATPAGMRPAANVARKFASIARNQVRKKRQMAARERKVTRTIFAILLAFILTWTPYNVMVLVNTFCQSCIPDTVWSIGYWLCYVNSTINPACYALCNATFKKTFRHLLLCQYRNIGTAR
Experimental: as §1, §2, §3, §4

| SMILES | remaining activity at 30 µM (Rat M4) | IC50 (Rat M4) | remaining activity at 30 µM (Human M4) | IC50 (Human M4) |
| --- | --- | --- | --- | --- |
| [O-][S+](c1ccccc1)c1ccc(N[C@H]2C[C@@H]3CN(CC4CCOCC4)C[C@@H]3C2)nn1 (stereo partly drawn) [compound 28, (3aR,5s,6aS)-N-(6-(phenylsulfinyl)pyridazin-3-yl)-2-((tetrahydro-2H-pyran-4-yl)methyl)octahydrocyclopenta[c]pyrrol-5-amine] | 8% | 113 nM | 5% | 57.2 nM |
| Cc1cc(CN2C[C@H]3C[C@H](Nc4ccc([S+]([O-])c5ccccc5)nn4)C[C@H]3C2)ccc1F (stereo partly drawn) [compound 32, (3aR,5s,6aS)-2-(4-fluoro-3-methylbenzyl)-N-(6-(phenylsulfinyl)pyridazin-3-yl)octahydrocyclopenta[c]pyrrol-5-amine] | 3% | 970 nM | 3% | 242 nM |
| O=S(=O)(c1ccc(N[C@H]2C[C@@H]3CN(Cc4ccccn4)C[C@@H]3C2)nn1)C1CCCCC1 [compound 33, (3aR,5s,6aS)-N-(6-(cyclohexylsulfonyl)pyridazin-3-yl)-2-(pyridin-2-ylmethyl)octahydrocyclopenta[c]pyrrol-5-amine] | 14% | 4460 nM | 5% | 105 nM |
| O=S(=O)(c1ccc(N[C@H]2C[C@@H]3CN(CC4CCOCC4)C[C@@H]3C2)nn1)C1CCCCC1 [compound 34, (3aR,5s,6aS)-N-(6-(cyclohexylsulfonyl)pyridazin-3-yl)-2-((tetrahydro-2H-pyran-4-yl)methyl)octahydrocyclopenta[c]pyrrol-5-amine] | 5% | 119 nM | 4% | 7.75 nM |
| Cc1cc(CN2C[C@H]3C[C@H](Nc4ccc(S(=O)(=O)C5CCCCC5)nn4)C[C@H]3C2)nn1C [compound 35, (3aR,5s,6aS)-N-(6-(cyclohexylsulfonyl)pyridazin-3-yl)-2-((1,5-dimethyl-1H-pyrazol-3-yl)methyl)octahydrocyclopenta[c]pyrrol-5-amine] | 19% | 4810 nM | 6% | 181 nM |
| CC1(C)CC(N2C[C@H]3C[C@H](Nc4ccc(S(=O)(=O)C5CCCCC5)nn4)C[C@H]3C2)CCO1 (stereo partly drawn) [compound 36, (3aR,5s,6aS)-N-(6-(cyclohexylsulfonyl)pyridazin-3-yl)-2-(2,2-dimethyltetrahydro-2H-pyran-4-yl)octahydrocyclopenta[c]pyrrol-5-amine] | 7% | 460 nM | 5% | 51.5 nM |
| Cc1cc(CN2C[C@H]3C[C@H](Nc4ccc(S(=O)(=O)C5CCCCC5)nn4)C[C@H]3C2)ccc1F [compound 38, (3aR,5s,6aS)-N-(6-(cyclohexylsulfonyl)pyridazin-3-yl)-2-(4-fluoro-3-methylbenzyl)octahydrocyclopenta[c]pyrrol-5-amine] | 3% | 591 nM | 4% | 188 nM |
| O=S(=O)(c1ccccc1)c1nnc(N[C@H]2C[C@@H]3CN(CC4CCOCC4)C[C@@H]3C2)cc1NC1CC1 [compound 39, N^5-cyclopropyl-6-(phenylsulfonyl)-N^3-((3aR,5s,6aS)-2-((tetrahydro-2H-pyran-4-yl)methyl)octahydrocyclopenta[c]pyrrol-5-yl)pyridazine-3,5-diamine] | 4% | 288 nM | 4% | 70.7 nM |

Continued, values first:

| remaining activity at 30 µM (Rat M4) | IC50 (Rat M4) | remaining activity at 30 µM (Human M4) | IC50 (Human M4) | SMILES |
| --- | --- | --- | --- | --- |
| 4% | 196 nM | 4% | 7.8 nM | [O-][S+](c1ccccc1)c1ccc(N[C@H]2C[C@@H]3CN(Cc4ccc5c(c4)OCO5)C[C@@H]3C2)nn1 (stereo partly drawn) [compound 30, (3aR,5s,6aS)-2-(benzo[d][1,3]dioxol-5-ylmethyl)-N-(6-(phenylsulfinyl)pyridazin-3-yl)octahydrocyclopenta[c]pyrrol-5-amine] |
| 3% | 1160 nM | 4% | 518 nM | Cc1cc(CN2C[C@H]3C[C@H](Nc4ccc(S(=O)(=O)c5ccccc5)nn4)C[C@H]3C2)ccc1F [compound 31, (3aR,5s,6aS)-2-(4-fluoro-3-methylbenzyl)-N-(6-(phenylsulfonyl)pyridazin-3-yl)octahydrocyclopenta[c]pyrrol-5-amine] |
| 4% | 160 nM | 4% | 3.84 nM | O=S(=O)(c1ccc(N[C@H]2C[C@@H]3CN(Cc4ccc5c(c4)OCO5)C[C@@H]3C2)nn1)C1CCCCC1 [compound 37, (3aR,5s,6aS)-2-(benzo[d][1,3]dioxol-5-ylmethyl)-N-(6-(cyclohexylsulfonyl)pyridazin-3-yl)octahydrocyclopenta[c]pyrrol-5-amine] |
| 15% | 2890 nM | 5% | 221 nM | Cc1cccnc1CN1C[C@H]2C[C@H](Nc3ccc(S(=O)(=O)c4ccccc4)nn3)C[C@H]2C1 [compound 40, (3aR,5s,6aS)-2-((3-methylpyridin-2-yl)methyl)-N-(6-(phenylsulfonyl)pyridazin-3-yl)octahydrocyclopenta[c]pyrrol-5-amine] |
| 20% | 5780 nM | 6% | 742 nM | O=S(=O)(c1ccccc1)c1ccc(N[C@H]2C[C@@H]3CN(Cc4ncccc4C(F)(F)F)C[C@@H]3C2)nn1 [compound 41, (3aR,5s,6aS)-N-(6-(phenylsulfonyl)pyridazin-3-yl)-2-((3-(trifluoromethyl)pyridin-2-yl)methyl)octahydrocyclopenta[c]pyrrol-5-amine] |
| 14% | 3110 nM | 3% | 1000 nM | Cc1cc2c(cc1CN1C[C@H]3C[C@H](Nc4ccc(S(=O)(=O)c5ccccc5)nn4)C[C@H]3C1)OCO2 [compound 42, (3aR,5s,6aS)-2-((6-methylbenzo[d][1,3]dioxol-5-yl)methyl)-N-(6-(phenylsulfonyl)pyridazin-3-yl)octahydrocyclopenta[c]pyrrol-5-amine] |
